Measured values taken from patent publication US12441742B2, “Naphthyridine compounds as inhibitors of KRAS” (Incyte Corporation, priority 2021, dated 2025).

Experiments:
KRAS G12D [1] = target: T1, KRAS G12D (Homo sapiens, UniProt P01116, G12D); experiment: KRAS_G12D GDP-GTP exchange assay (bodipy-GDP/GppNHp, SOS1); type: biochemical; conditions: bodipy-loaded KRAS G12D 2.5 nM, 4 hours pre-incubation, 2 hours exchange; for IC50: read-out: G12D_exchange (KRAS_G12D exchange assay IC50)
Experimental: (§1) The inhibitor potency of the exemplified compounds was determined in a fluorescence based guanine nucleotide exchange assay, which measures the exchange of bodipy-GDP (fluorescently labeled GDP) for GppNHp (Non-hydrolyzable GTP analog) to generate the active state of KRAS in the presence of SOS1 (guanine nucleotide exchange factor). Inhibitors were serially diluted in DMSO and a volume of 0.1 μL was transferred to the wells of a black low volume 384-well plate. 5 μL/well volume of bodipy-loaded KRAS G12D diluted to 2.5 nM in assay buffer (25 mM Hepes pH 7.5, 50 mM NaCl, 10 mM MgCl2 and 0.01% Brij-35) was added to the plate and pre-incubated with inhibitor for 4 hours at ambient temperature. Appropriate controls (enzyme with no inhibitor or with a G12D inhibitor) were included on the plate. The exchange was initiated by the addition of a 5 μL/well volume containing 1 mM GppNHp and 300 nM SOS1 in assay buffer. The 10 μL/well reaction concentration of the bodipy-loaded KRAS G12D, GppNHp, and SOS1 were 2.5 nM, 500 uM, and 150 nM, respectively. The reaction plates were incubated at ambient temperature for 2 hours, a time estimated for complete GDP-GTP exchange in the absence of inhibitor. For the KRAS G12V mutant, similar guanine nucleotide exchange assays were used with 2.5 nM as final concentration for the bodipy loaded KRAS proteins and 3 hours incubation after adding GppNHp-SOS1 mixture. A cyclic peptide described to selectively bind G12D mutant (Sakamoto et al., BBRC 484.3 (2017), 605-611) or internal compounds with confirmed binding were used as positive controls in the assay plates. Fluorescence intensities were measured on a PheraStar plate reader instrument (BMG Labtech) with excitation at 485 nm and emission at 520 nm.
(§2) Either GraphPad prism or XLfit was used to analyze the data. The IC50 values were derived by fitting the data to a four parameter logistic equation producing a sigmoidal dose-response curve with a variable Hill coefficient. Prism equation: Y=Bottom+(Top−Bottom)/(1+10^((Log IC50−X)*Hill slope)); XLfit equation: Y=(A+((B−A)/(1+((X/C)^D)))) where X is the logarithm of inhibitor concentration and Y is the response.

KRAS G12V = KRAS G12V (Homo sapiens, UniProt P01116, G12V); experiment: KRAS_G12V GDP-GTP exchange assay (bodipy-GDP/GppNHp, SOS1); type: biochemical; conditions: bodipy loaded KRAS G12V 2.5 nM, 3 hours incubation after GppNHp-SOS1; read-out: G12V_exchange (KRAS_G12V exchange assay IC50)
Experimental: as §1, §2

KRAS G12D [2] = target: T1, KRAS G12D; experiment: KRAS_G12D cellular pERK HTRF assay; type: cell-based; parameters: CRL-1997; host or cells: A427 or HPAF-II; conditions: KRAS G12D cells (A427, HPAF-II), 2 hours; read-out: G12D_pERK (KRAS_G12D pERK assay IC50)
Experimental: MIA PaCa-2 (KRAS G12C; ATCC® CRL-1420), A427 (KRAS G12D; ATCC® HTB53), HPAF-II (KRAS G12D; ATCC® CRL-1997) and NCI-H838 (KRAS WT; ATCC® CRL-5844) cells are purchased from ATCC and maintained in RPMI 1640 media supplemented with 10% FBS (Gibco/Life Technologies). The cells are plated at 5000 cells per well (8 uL) into Greiner 384-well low volume, flat-bottom, tissue culture treated white plates and incubated overnight at 37° C., 5% CO2. The next morning, test compound stock solutions are diluted in media at 3x the final concentration, and 4 uL are added to the cells. The plate is mixed by gentle rotation for 30 seconds (250 rpm) at room temperature. The cells are incubated with the KRAS G12C and G12D compounds for 4 hours or 2 hours respectively at 37° C., 5% CO2.
4 uL of 4x lysis buffer with blocking reagent (1:25) (Cisbio) are added to each well and plates are rotated gently (300 rpm) for 30 minutes at room temperature. 4 uL per well of Cisbio anti Phospho-ERK 1/2 d2 is mixed with anti Phospho-ERK 1/2 Cryptate (1:1) are added to each well, mixed by rotation and incubated overnight in the dark at room temperature. Plates are read on the Pherastar plate reader at 665 nm and 620 nm wavelengths. IC50 determination is performed by fitting the curve of inhibitor percent inhibition versus the log of the inhibitor concentration using the GraphPad Prism 7 software.

KRAS G12V, sequence (P01116 1-188 isoform P01116-2 G12V): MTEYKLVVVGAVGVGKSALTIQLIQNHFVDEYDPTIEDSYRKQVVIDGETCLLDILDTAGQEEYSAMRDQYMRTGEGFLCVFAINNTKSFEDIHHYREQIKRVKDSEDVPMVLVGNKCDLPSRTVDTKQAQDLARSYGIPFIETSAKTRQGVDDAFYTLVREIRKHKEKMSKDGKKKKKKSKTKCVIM
T1 sequence (P01116 1-188 isoform P01116-2 G12D): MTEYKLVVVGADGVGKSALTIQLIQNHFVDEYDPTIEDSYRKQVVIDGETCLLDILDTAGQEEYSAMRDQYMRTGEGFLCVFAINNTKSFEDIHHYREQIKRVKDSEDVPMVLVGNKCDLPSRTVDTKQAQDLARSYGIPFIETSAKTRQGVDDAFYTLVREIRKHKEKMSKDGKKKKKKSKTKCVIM

SMILES	G12D_exchange (KRAS_G12D exchange assay IC50) (KRAS G12D [1])	IC50 (KRAS G12V) [nM]	IC50 (KRAS G12D [2]) [nM]	IC50 (KRAS G12D [1]) [nM]
COC(=O)CCc1nc2c(N3CC(N(C)C)C3)nc3c(F)c(-c4cc(O)cc5ccccc45)ncc3c2n1[C@@H]1[C@@H]2CN[C@H]1C2 (relative stereo) [Example 11, methyl 3-(1-((endo)-2-azabicyclo[2.1.1]hexan-5-yl)-4-(3-(dimethylamino)azetidin-1-yl)-6-fluoro-7-(3-hydroxynaphthalen-1-yl)-1H-imidazo[4,5-c][1,6]naphthyridin-2-yl)propanoate]	†	100 to 1000	1000 to 5000	
CNC(=O)c1cccc(-c2nc3c(F)c(-c4cccc(C)c4Cl)ncc3c3c2cc([C@H]2CCCN2C(=O)OC)n3[C@H]2[C@H]3CN[C@@H]2C3)n1 [Example 24, Methyl (R)-2-(1-((1R,4R,5S)-2-azabicyclo[2.1.1]hexan-5-yl)-7-(2-chloro-3-methylphenyl)-6-fluoro-4-(6-(methylcarbamoyl)pyridin-2-yl)-1H-pyrrolo[3,2-c][1,6]naphthyridin-2-yl)pyrrolidine-1-carboxylate]	†	5000 to 10000		
C[C@H](Oc1nc2c(F)c(-c3cccc4c3OCCC4)ncc2c2c1cc([C@@H](C)n1ccccc1=O)n2[C@H]1[C@H]2CN[C@@H]1C2)[C@@H]1CCCN1C [Example 21, 1-((R)-1-(1-((1R,4R,5S)-2-Azabicyclo[2.1.1]hexan-5-yl)-7-(chroman-8-yl)-6-fluoro-4-((S)-1-((S)-1-methylpyrrolidin-2-yl)ethoxy)-1H-pyrrolo[3,2-c][1,6]naphthyridin-2-yl)ethyl)pyridin-2(1H)-one]	†	≤ 100		
COC(=O)N1CCC[C@@H]1c1cc2c(N3CC(C)(N(C)C)C3)nc3c(F)c(-c4cccc(Cl)c4Cl)ncc3c2n1[C@H]1[C@H]2CN[C@@H]1C2 [Example 22, Methyl (R)-2-(1-((1R,4R,5S)-2-azabicyclo[2.1.1]hexan-5-yl)-7-(2,3-dichlorophenyl)-4-(3-(dimethylamino)-3-methylazetidin-1-yl)-6-fluoro-1H-pyrrolo[3,2-c][1,6]naphthyridin-2-yl)pyrrolidine-1-carboxylate]	†	100 to 1000		
Cc1nc2c(F)c(-c3cc(O)cc4ccccc34)ncc2c2c1cc(CN1CCOC1=O)n2[C@@H]1[C@@H]2CN[C@H]1C2 (relative stereo) [Example 5, 3-((1-((endo)-2-azabicyclo[2.1.1]hexan-5-yl)-6-fluoro-7-(3-hydroxynaphthalen-1-yl)-4-methyl-1H-pyrrolo[3,2-c][1,6]naphthyridin-2-yl)methyl)oxazolidin-2-one]		1000 to 5000		100 to 1000
CC(=O)N1CCC[C@@H]1c1cc2c(O[C@@H](C)[C@@H]3CCCN3C)nc3c(F)c(-c4cccc5scnc45)ncc3c2n1[C@H]1[C@H]2CN[C@@H]1C2 [Example 19, 1-((R)-2-(7-(Benzo[d]thiazol-4-yl)-1-((1R,4R,5S)-2-azabicyclo[2.1.1]hexan-5-yl)-6-fluoro-4-((S)-1-((S)-1-methylpyrrolidin-2-yl)ethoxy)-1H-pyrrolo[3,2-c][1,6]naphthyridin-2-yl)pyrrolidin-1-yl)ethan-1-one]	†	≤ 100		
Cc1nc2c(nc(N3CC(N(C)C)C3)c3nc(CCC(=O)N(C)C)n([C@@H]4[C@@H]5CN[C@H]4C5)c32)c(C)c1-c1cc(O)cc2ccccc12 (relative stereo) [Example 16, 3-(1-((endo)-2-azabicyclo[2.1.1]hexan-5-yl)-4-(3-(dimethylamino)azetidin-1-yl)-7-(3-hydroxynaphthalen-1-yl)-6,8-dimethyl-1H-imidazo[4,5-c][1,5]naphthyridin-2-yl)-N,N-dimethylpropanamide]				1000 to 5000
COC(=O)N1CCC[C@@H]1c1cc2c(O[C@@H](C)[C@@H]3CCCN3C)nc3c(F)c(-c4cccc(Cl)c4Cl)ncc3c2n1[C@H]1[C@H]2CN[C@@H]1C2 [Example 23, Methyl (R)-2-(1-((1R,4R,5S)-2-azabicyclo[2.1.1]hexan-5-yl)-7-(2,3-dichlorophenyl)-6-fluoro-4-((S)-1-((S)-1-methylpyrrolidin-2-yl)ethoxy)-1H-pyrrolo[3,2-c][1,6]naphthyridin-2-yl)pyrrolidine-1-carboxylate]	†	≤ 100		
Cc1cc2c(O[C@@H](C)[C@@H]3CCCN3C)nc3c(F)c(-c4cc(O)cc5ccc(F)cc45)ncc3c2n1[C@H]1[C@H]2CN[C@@H]1C2 [Example 18, 4-(1-((1R,4R,5S)-2-Azabicyclo[2.1.1]hexan-5-yl)-6-fluoro-2-methyl-4-((S)-1-((S)-1-methylpyrrolidin-2-yl)ethoxy)-1H-pyrrolo[3,2-c][1,6]naphthyridin-7-yl)-6-fluoronaphthalen-2-ol]	†	≤ 100		

More lines, now with the values ahead:

G12D_exchange (KRAS_G12D exchange assay IC50) (KRAS G12D [1])	IC50 (KRAS G12V) [nM]	IC50 (KRAS G12D [2]) [nM]	IC50 (KRAS G12D [1]) [nM]	SMILES
†	100 to 1000			Cc1cc2c(O[C@@H](C)[C@@H]3CCCN3C)nc3c(F)c(N4CCc5ccccc54)ncc3c2n1C1C2CNC1C2 (single isomer, unassigned) [Example 8a]
	1000 to 5000		100 to 1000	Cc1cc2c(O[C@@H](C)[C@@H]3CCCN3C)nc3c(F)c(N4CCc5ccccc54)ncc3c2n1C1C2CNC1C2 (single isomer, unassigned) [Example 8b]
			100 to 1000	C[C@H](Oc1nc2c(F)c(-c3c[nH]c4ccc(F)cc34)ncc2c2c1cc(CN1CCOC1=O)n2C1C2CNC1C2)[C@@H]1CCCN1C (single isomer, unassigned) [Example 6a]
†	≤ 100			C[C@H](Oc1nc2c(F)c(-c3cccc4c3OCCC4)ncc2c2c1cc(C1CCc3cccc(=O)n31)n2[C@H]1[C@H]2CN[C@@H]1C2)[C@@H]1CCCN1C (single isomer, unassigned) [Example 20a]
†	≤ 100			C[C@H](Oc1nc2c(F)c(-c3cc(O)cc4ccccc34)ncc2c2c1nc(CCC(=O)N(C)C)n2C1C2CNC1C2)[C@@H]1CCCN1C (single isomer, unassigned) [Example 9b]
			1000 to 5000	CN(C)C(=O)CCc1nc2c(N3CC(N(C)C)C3)nc3c(F)c(-c4cccc5c4C(C#N)CC5)ncc3c2n1C1C2CNC1C2 (single isomer, unassigned) [Example 10b, 3-(1-((endo)-2-azabicyclo[2.1.1]hexan-5-yl)-7-(3-cyano-2,3-dihydro-1H-inden-4-yl)-4-(3-(dimethylamino)azetidin-1-yl)-6-fluoro-1H-imidazo[4,5-c][1,6]naphthyridin-2-yl)-N,N-dimethylpropanamide]
†	1000 to 5000			CN(C)C(=O)CCc1nc2c(N3CC(N(C)C)C3)nc3cc(-c4cc(O)cc5ccccc45)c(CCC#N)nc3c2n1C1C2CNC1C2 (single isomer, unassigned) [Example 17a, 3-(1-((endo)-2-azabicyclo[2.1.1]hexan-5-yl)-8-(2-cyanoethyl)-4-(3-(dimethylamino)azetidin-1-yl)-7-(3-hydroxynaphthalen-1-yl)-1H-imidazo[4,5-c][1,5]naphthyridin-2-yl)-N,N-dimethylpropanamide]
